From patent US11584763B2, “Chromenopyridine derivatives as phosphatidylinositol phosphate kinase inhibitors” (HIBERCELL, INC., priority 2017, dated 2023) come the findings set out here.

One test has as its target T1, PIP4K2B (Homo sapiens, UniProt P78356).
T1 construct: made in house; host or cells: E. coli
T1 sequence (P78356 1-416): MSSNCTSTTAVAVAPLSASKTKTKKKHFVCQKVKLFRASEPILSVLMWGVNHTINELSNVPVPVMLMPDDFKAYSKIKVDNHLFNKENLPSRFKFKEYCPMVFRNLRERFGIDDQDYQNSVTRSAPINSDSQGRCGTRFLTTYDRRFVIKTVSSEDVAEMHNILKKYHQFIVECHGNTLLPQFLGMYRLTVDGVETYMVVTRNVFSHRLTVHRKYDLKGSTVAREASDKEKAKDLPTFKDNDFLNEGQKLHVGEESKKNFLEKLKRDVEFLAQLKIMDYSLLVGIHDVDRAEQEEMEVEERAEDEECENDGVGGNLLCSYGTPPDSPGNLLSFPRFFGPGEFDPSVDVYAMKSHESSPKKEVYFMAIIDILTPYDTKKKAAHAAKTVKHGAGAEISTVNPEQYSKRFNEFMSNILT
Kind of test: Trans-FI P kinase assay PIP4K2B (PIP4KtypeIIB inhibition assay). It is filed as biochemical. Conditions: compounds listed under IC50 bin headings; 100 uM GTP; read-out: Trans-FI P kinase assays: PIP4K2B IC50. The text has this: GST tagged PIP4KtypeIIA and B enzymes were overexpressed in E. Coli and purified to >80% homogeneity. Phosphatidyl inositol-5-phosphate (PI5P, Cat. #850152, Avanti Polar Lipids Inc.) was used as the lipid substrate and phosphatidyl ethanolamine (DOPE 18:1, Cat. #850725, Avanti Polar Lipids Inc.) was used as the carrier lipid for assays. Ultrapure ATP and GTP was purchased from Bellbrooke Labs. ADP Glo reagents were obtained from Promega. Transcreener FI reagent was obtained from Bellbrooke labs.
GST-tagged PIP4KtypeIIB (3.4 uL, 2.77 mg/mL) was diluted to 5 mL using HNE buffer to yield 5× enzyme stock (25 nM)
Lipid Preparation: In a 10 mL pyrex glass vial, 1 ug of PI5P and 1 ug of DOPE were suspended in 2.5 mL of HEPES buffer mix and 2.5 mL of H:E buffer. The contents were mixed and sonicated for 3 min to yield a translucent lipid stock.
Compound Preparation: Compounds were stored as 5 mM stocks in neat DMSO as room temperature in glass vials. 5 mM stocks were diluted to 2 mM and then serially diluted (3×) in neat DMSO in 96 well polypropylene plates. From the serially diluted stocks, 3 uL was delivered into 250 uL of 25% DMSO (in water) to generate 5× compound stocks. Typically, the highest compound conc. was 24 uM.
The assay volume was kept at 25 uL. To each well of the reaction plate, 10 uL of lipid stock (1:1 ratio PI5P:DOPE) was delivered. This was followed by the addition of 5 uL of compound in 25% DMSO. Then, to each well, 5 uL of 25 nM (5×) typeIIB enzyme was delivered. The contents were mixed well and incubated for 1 h at 27 C. After 1 h, reaction was initiated by adding 5 uL of 500 uM GTP and the contents were mixed well with a multi-channel pipetteman. The final concentration of the reagents are as follows: 50 mM HEPES, pH 7.3, 10 mM MgCl2, 20 mM NaCl, 0.01% v/v triton-X100, 5% DMSO, 100 uM GTP, 80 uM (2 ug) PI5P, 2 ug DOPE, and 5 nM PIP4KIIB Typically, the highest conc. of compounds was 4.8 uM and the lowest conc. was 0.
After 2 h, the reaction was quenched by adding 25 uL of transcreener FI reagent. The contents were incubated at RT for 1 h and the Fluorescence (Ex: 584 Em: 623) was read using Molecular Devices Paradigm plate reader. […] The blanks were averaged and subtracted from all other wells. Using a calibration curve, RFU was converted to uM GDP (product). IC50 was calculated by plotting the residual activity (expressed as % No inhibitor control) vs. log [Inh. conc.]

The target of a further test is T2, PIP4K 2A (Homo sapiens, UniProt P48426).
T2 sequence (P48426 1-406): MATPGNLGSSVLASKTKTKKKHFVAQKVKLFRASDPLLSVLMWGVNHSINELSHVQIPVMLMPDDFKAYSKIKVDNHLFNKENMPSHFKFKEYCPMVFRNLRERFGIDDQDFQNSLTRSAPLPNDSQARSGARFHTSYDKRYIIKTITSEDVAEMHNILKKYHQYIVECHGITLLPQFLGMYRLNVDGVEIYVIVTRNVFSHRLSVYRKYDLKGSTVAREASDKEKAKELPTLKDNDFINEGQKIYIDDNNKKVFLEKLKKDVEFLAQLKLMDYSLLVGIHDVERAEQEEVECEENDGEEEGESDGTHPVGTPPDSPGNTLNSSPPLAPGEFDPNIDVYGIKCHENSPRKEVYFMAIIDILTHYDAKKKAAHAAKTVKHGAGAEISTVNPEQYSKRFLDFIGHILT
Kind of test: ADP-glo kinase assay PIP4K 2A. On the set-up: 4 nM PIP4K2A (full length protein, SignalChem); purchased SignalChem. It is filed as biochemical. The settings on record: compounds listed under IC50 bin headings. The protocol:
Dilution series of the compounds were prepared in DMSO at 100 times the final assay concentration (n1=n0/3 in 10 points). The compounds were further diluted to three times the assay concentration in assay buffer (20 mM MOPS pH 7.2, 25 mM magnesium chloride, 0.005% Tween 20). 6 μL of the diluted compounds were added to a 384 well assay plate followed by 9 μL of a mix consisting of 4 nM PIP4K2A (full length protein, SignalChem) and 100 μM PI(5)P diC8 (Tebu-Bio). Enzyme and compounds were pre-incubated at room temperature for 15 minutes.
Then 3 μL of a solution containing 60 μM ATP (Promega) in assay buffer was added to the wells containing compound and enzyme and mixing was performed by pipetting several times. The reaction was incubated at room temperature for 1 h. Then 18 μL of ADP-Glo™ Reagent (Promega) was added to stop the kinase reaction and deplete the unconsumed ATP, mixing was performed by pipetting several times. The plate was incubated at room temperature for 40 minutes before addition of 36 μL of Kinase Detection Reagent (Promega) to convert ADP to ATP and introduce luciferase and luciferin to detect ATP. The reaction was incubated at room temperature for 40 minutes before the luminescence was measured in a in a Victor 3V 1420 multilabel counter (Perkin Elmer).
Percent inhibition of the compounds as compared to dimethyl sulfoxide treated control samples was calculated. Compound concentration versus percent inhibition were fitted to generate IC50 values.

Turning to `CC1Oc2cc(N3CCCC3=O)ccc2-c2cnc(Nc3cncc(NC(=O)C4CCCO4)c3)cc21` (stereo not drawn) [Example 135, N-(5-((5-methyl-8-(2-oxopyrrolidin-1-yl)-5H-chromeno[4,3-c]pyridin-3-yl)amino)pyridin-3-yl)tetrahydrofuran-2-carboxamide], the IC50 at PIP4K2B was 10 to 100 nM; against PIP4K 2A, 1 to 10 nM.

For the compound `CC1Oc2cc(N3CCCC3=O)ccc2-c2cnc(Nc3cncc(NC(=O)c4ccc5c(c4)OCO5)c3)cc21` (stereo not drawn) [Example 136, N-(5-((5-methyl-8-(2-oxopyrrolidin-1-yl)-5H-chromeno[4,3-c]pyridin-3-yl)amino)pyridin-3-yl)benzo[d][1,3]dioxole-5-carboxamide], the IC50 at PIP4K2B fell in the range of 10 to 100 nM; against PIP4K 2A it was 1 to 10 nM.

As to `CC1Oc2cc(N3CCCC3=O)ccc2-c2cnc(Nc3cncc(NC(=O)c4cccc5c4OCO5)c3)cc21` (stereo not drawn) [Example 137, N-(5-((5-methyl-8-(2-oxopyrrolidin-1-yl)-5H-chromeno[4,3-c]pyridin-3-yl)amino)pyridin-3-yl)benzo[d][1,3]dioxole-4-carboxamide], the concentration for half-maximal inhibition (IC50) was in the range of 10 to 100 nM on PIP4K2B and 1 to 10 nM against PIP4K 2A.

Consider `CC1Oc2cc(N3CCCC3=O)ccc2-c2cnc(Nc3cncc(NC(=O)C4Cc5ccccc5C4)c3)cc21` (stereo not drawn) [Example 138, N-(5-((5-methyl-8-(2-oxopyrrolidin-1-yl)-5H-chromeno[4,3-c]pyridin-3-yl)amino)pyridin-3-yl)-2,3-dihydro-1H-indene-2-carboxamide], for which the IC50 on PIP4K2B and against PIP4K 2A was 10 to 100 nM throughout.

Turning to `CC1Oc2cc(N3CCCC3=O)ccc2-c2cnc(Nc3cncc(NC(=O)c4cn5ccccc5n4)c3)cc21` (stereo not drawn) [Example 139, N-(5-((5-methyl-8-(2-oxopyrrolidin-1-yl)-5H-chromeno[4,3-c]pyridin-3-yl)amino)pyridin-3-yl)imidazo[1,2-a]pyridine-2-carboxamide], the IC50 on PIP4K2B lay in the range of 10 to 100 nM; at PIP4K 2A it was 1 to 10 nM.

For `CC1Oc2cc(N3CCCC3=O)ccc2-c2cnc(Nc3cncc(NC(=O)c4cc5ccccn5n4)c3)cc21` (stereo not drawn) [Example 140, N-(5-((5-methyl-8-(2-oxopyrrolidin-1-yl)-5H-chromeno[4,3-c]pyridin-3-yl)amino)pyridin-3-yl)pyrazolo[1,5-a]pyridine-2-carboxamide], the figures for the IC50 at PIP4K2B and against PIP4K 2A were 10 to 100 nM and 1 to 10 nM, respectively.

On to `CC1Oc2cc(N3CCCC3=O)ccc2-c2cnc(Nc3cncc(NC(=O)c4cc5ccccc5[nH]4)c3)cc21` (stereo not drawn) [Example 141, N-(5-((5-methyl-8-(2-oxopyrrolidin-1-yl)-5H-chromeno[4,3-c]pyridin-3-yl)amino)pyridin-3-yl)-1H-indole-2-carboxamide], for which the figures for the IC50 at PIP4K2B and against PIP4K 2A were 10 to 100 nM and 1 to 10 nM, respectively.

For `CC1Oc2cc(N3CCCC3=O)ccc2-c2cnc(Nc3cncc(NC(=O)C4Cc5ccccc5O4)c3)cc21` (stereo not drawn) [Example 142, N-(5-((5-methyl-8-(2-oxopyrrolidin-1-yl)-5H-chromeno[4,3-c]pyridin-3-yl)amino)pyridin-3-yl)-2,3-dihydrobenzofuran-2-carboxamide], the IC50 is 100 to 1000 nM on PIP4K2B and 10 to 100 nM at PIP4K 2A.

As for `CC1Oc2cc(N3CCCC3=O)ccc2-c2cnc(Nc3cncc(NC(=O)c4cnc5ccccn45)c3)cc21` (stereo not drawn) [Example 143, N-(5-((5-methyl-8-(2-oxopyrrolidin-1-yl)-5H-chromeno[4,3-c]pyridin-3-yl)amino)pyridin-3-yl)imidazo[1,2-a]pyridine-3-carboxamide], the IC50 is 1 to 10 nM at PIP4K2B and not above 1 nM against PIP4K 2A.

`CC1Oc2cc(N3CCCC3=O)ccc2-c2cnc(Nc3cncc(NC(=O)c4cnn5ccccc45)c3)cc21` (stereo not drawn) [Example 144, N-(5-((5-methyl-8-(2-oxopyrrolidin-1-yl)-5H-chromeno[4,3-c]pyridin-3-yl)amino)pyridin-3-yl)pyrazolo[1,5-a]pyridine-3-carboxamide]: the IC50 on PIP4K2B is 1 to 10 nM; on PIP4K 2A, not above 1 nM.

Consider `CC1Oc2cc(N3CCCC3=O)ccc2-c2cnc(Nc3cncc(NC(=O)Cc4cnc5ccccn45)c3)cc21` (stereo not drawn) [Example 145, 2-(imidazo[1,2-a]pyridin-3-yl)-N-(5-((5-methyl-8-(2-oxopyrrolidin-1-yl)-5H-chromeno[4,3-c]pyridin-3-yl)amino)pyridin-3-yl)acetamide], for which the IC50 lay within 10 to 100 nM at PIP4K2B and 1 to 10 nM against PIP4K 2A.

With `CC1Oc2cc(N3CCCC3=O)ccc2-c2cnc(Nc3cncc(NC(=O)c4cccc5nccn45)c3)cc21` (stereo not drawn) [Example 146, N-(5-((5-methyl-8-(2-oxopyrrolidin-1-yl)-5H-chromeno[4,3-c]pyridin-3-yl)amino)pyridin-3-yl)imidazo[1,2-a]pyridine-5-carboxamide], the IC50 at PIP4K2B is 1 to 10 nM; against PIP4K 2A it was not above 1 nM.

As to `CC1Oc2cc(N3CCCC3=O)ccc2-c2cnc(Nc3cncc(NC(=O)c4ccn5ccnc5c4)c3)cc21` (stereo not drawn) [Example 147, N-(5-((5-methyl-8-(2-oxopyrrolidin-1-yl)-5H-chromeno[4,3-c]pyridin-3-yl)amino)pyridin-3-yl)imidazo[1,2-a]pyridine-7-carboxamide], the results for the IC50 at PIP4K2B and at PIP4K 2A were 10 to 100 nM and 1 to 10 nM, respectively.

Regarding `COC(=O)N1CCOc2ncc(Nc3cc4c(cn3)-c3cc(F)c(N5CCCC5=O)cc3OC4C)cc21` (stereo not drawn) [Example 150, methyl 7-((9-fluoro-5-methyl-8-(2-oxopyrrolidin-1-yl)-5H-chromeno[4,3-c]pyridin-3-yl)amino)-2,3-dihydro-1H-pyrido[2,3-b][1,4]oxazine-1-carboxylate], the IC50 is 1 to 10 nM on PIP4K2B and not above 1 nM on PIP4K 2A.

Turning to `CC1Oc2cc(N3CCCC3=O)c(F)cc2-c2cnc(Nc3cncc(N4CCNC4=O)c3)cc21` (stereo not drawn) [Example 151, 1-(5-((9-fluoro-5-methyl-8-(2-oxopyrrolidin-1-yl)-5H-chromeno[4,3-c]pyridin-3-yl)amino)pyridin-3-yl)imidazolidin-2-one], the IC50 lay within 10 to 100 nM on PIP4K2B and 1 to 10 nM against PIP4K 2A.
